{
  "source": "patent US10130590B2",
  "about": "“Methods of treating cancer with atovaquone-related compounds” (DANA-FARBER CANCER INSTITUTE, INC., priority 2013, dated 2018)",
  "test_system": "STAT3",
  "experiment": "STAT3-luc reporter cells, IL-6 stimulated luciferase",
  "type": "cell-based",
  "experimental": "Western blotting was performed as previously described (Battle T E, Arbiser J, & Frank D A (2005) The natural product honokiol induces caspase dependent apoptosis in B-cell chronic lymphocytic leukemia (B-CLL) cells. Blood 106(2):690-697). Antibodies to phospho-MAPK (9101), total MAPK (9102), phospho-Y705 STAT3 (9131), phospho-S6 (2215), total S6 (2217), phospho-4E-BP1 (9451), total 4E-BP1 (9644), total RSK (9355), phospho-S6K (9234, 85 used at 1:5000), total S6K (2708), phospho-eIF2α (9721, used at 1:1000), total eIF2α (5324), ATF4 (11815, used at 1:1000), PDGFRβ (3169), IGF1Rβ (9750), EGFR (2232), and HER2 (2242) were from Cell Signaling Technology. Phospho-RSK antibody was from R&D (AF889). Antibodies to total STAT3 (sc-482) and gp130 (sc-656, used at 1:1000) were from Santa Cruz Biotechnology. Phospho-S727 STAT3 antibody was described previously (229). REDD1 antibody was from Proteintech (10638-1-AP, used at 1:1000). Antibody recognizing full-length and cleaved ATF6 was from Abcam (ab122897, used at 1:1000). Antibodies to tubulin (T5168) and beta actin (A5316) were from Sigma. All antibodies were used at 1:10000 dilution for western blot unless otherwise noted. For immunoprecipitations, cells were lysed in 500 μl lysis buffer (0.5% NP-40, 150 mM NaCl, 50 mM Tris pH 7.5, with protease and phosphatase inhibitors freshly added at 1:100 [Pierce, PI78443]) on ice for 15 minutes, then centrifuged for 10 minutes at 14,000 RPM and 4° C. The supernatant was transferred to a new tube and incubated with 10 μl JAK2 antibody (Santa Cruz sc-278) or a mix of two TYK2 antibodies, 10 μl of each (Santa Cruz sc-5271 and Cell Signaling Technology 9312). Immunoprecipitation was performed overnight at 4° C. with rotation. The next day, 75 μl of protein A/G beads (Santa Cruz sc-2003) were washed twice in lysis buffer, then incubated with immunoprecipitates overnight as before. The next day, the beads were spun down (1 min. at 7,500 RPM and 4° C.) and washed 3 times with 650 μl lysis buffer for 10 minutes at 4° C. with rotation, then boiled in 50 μl sample buffer+10% β-mercaptoethanol. For Western blot, 20 μl were loaded per lane. For detection of phospho-tyrosine, a mixture of two pan-phospho-tyrosine antibodies (Cell Signaling Technology 9411 and 9416, 1:1000 of each) was used. Antibody to phospho-Y1007/1008 JAK2 was from Cell Signaling 86 Technology (3771, used at 1:1000). Antibody to phospho-Y570 JAK2 was from Millipore (09-241, used at 1:1000). Luminometric Assays Luciferase reporter cell lines were described previously (186). Firefly luciferase values were normalized by concurrent cell viability. Cell viability was measured as ATP-dependent luminescence by Cell Titer Glo (Promega).\nTo determine if atovaquone inhibits STAT3, it was tested in a cell-based reporter system of STAT3 transcriptional activity (Nelson E A, et al. (2008) Nifuroxazide inhibits survival of multiple myeloma cells by directly inhibiting STAT3. Blood 112(13):5095-5102). These cells lack basal STAT3 activation; upon IL-6 treatment, STAT3 becomes activated and drives transcription of a STAT3-dependent luciferase reporter gene. […] Activity of firefly luciferase was measured and normalized by cell viability (Cell Titer Glo). […]\nSTAT3-luc reporter cells were pre-treated with atovaquone, buparvaquone or TDBHN (concentration 10, 20, 30, or 40 μM) for 1 hour, then stimulated with IL-6 (10 ng/ml) for 5 hours. The activity of firefly luciferase was measured and normalized by cell viability (Cell Titer Glo).",
  "data": [
    {"smiles": "O=C1C(O)=C([C@H]2CC[C@H](c3ccc(Cl)cc3)CC2)C(=O)c2ccccc21", "note": "[atovaquone, trans-2-[4-(4-chlorophenyl)cyclohexyl]-3-hydroxy-1,4-naphthalenedione]", "values": [
      {"measurement": "STAT-3 reporter gene expression", "setting": "10, 20, 30, or 40 μM for 1 hour, then IL-6 (10 ng/ml) 5 hours, relative to controls", "result": "inhibited STAT-3 reporter gene expression"},
      {"measurement": "luciferase induction by IL-6 (STAT3 transcriptional activity)", "setting": "pre-treated 1 hour, then IL-6 (10 ng/ml) 5 hr, normalized by cell viability", "result": "dose-dependent inhibition of luciferase induction by IL-6"},
      {"measurement": "effect on STAT3 activity compared with STAT1, STAT5 and NF-κB", "setting": "reporter systems", "result": "much greater"}
    ]}
  ]
}
